Measurements: ChEMBL document CHEMBL3885881, “DrugMatrix”

Organism: Rattus norvegicus
Test: DrugMatrix - Regimen: Daily Repeat
Type: toxicity, organism-based, Sprague-Dawley
Parameters: regimen Daily Repeat, gender Male, age 6-8 weeks
Details: in vivo, po, route oral GAVAGE, vehicle 100 % SALINE; for ABSOLUTE BASOPHIL / ABSOLUTE EOSINOPHIL / ABSOLUTE LYMPHOCYTE / ABSOLUTE MONOCYTE / ABSOLUTE SEGMENTED NEUTROPHIL / BASOPHIL / EOSINOPHIL / ERYTHROCYTE COUNT / HEMATOCRIT / HEMOGLOBIN / LEUKOCYTE COUNT / LYMPHOCYTE / MEAN CORPUSCULAR HEMOGLOBIN / MEAN CORPUSCULAR HEMOGLOBIN CONCENTRATION / MEAN CORPUSCULAR VOLUME / MONOCYTE / NEUTROPHIL / NUCLEATED RED BLOOD CELLS / PLATELET COUNT: tissue Blood; for ALANINE AMINOTRANSFERASE / ALBUMIN / ALKALINE PHOSPHATASE / ASPARTATE AMINOTRANSFERASE / BLOOD UREA NITROGEN / CARBON DIOXIDE / CHLORIDE / CHOLESTEROL / CREATINE PHOSPHOKINASE / CREATININE / GLUCOSE / LACTATE DEHYDROGENASE / LIPASE / PHOSPHORUS / POTASSIUM / SODIUM / TOTAL BILIRUBIN / TOTAL PROTEIN / URIC ACID: tissue Plasma
[1] = 0 mg/kg, 72 h, dose level Control, time 3 day
[2] = 0 mg/kg, 120 h, dose level Control, time 5 day
[3] = 1200 mg/kg, 72 h, dose level High, time 3 day
[4] = 1200 mg/kg, 120 h, dose level High, time 5 day

CC(=O)OCC(CCn1cnc2cnc(N)nc21)COC(C)=O [FAMCICLOVIR]
ABSOLUTE BASOPHIL [1]: 0 CELLS/uL | ABSOLUTE EOSINOPHIL [1]: 37 CELLS/uL | ABSOLUTE LYMPHOCYTE [1]: 12359.33 CELLS/uL | ABSOLUTE MONOCYTE [1]: 122.67 CELLS/uL | ABSOLUTE SEGMENTED NEUTROPHIL [1]: 847.67 CELLS/uL | BASOPHIL [1]: 0% | EOSINOPHIL [1]: 0.33% | ERYTHROCYTE COUNT [1]: 5.75 x10E6/uL | HEMATOCRIT [1]: 36.08% | HEMOGLOBIN [1]: 14.07 G/DL | LEUKOCYTE COUNT [1]: 13.37 x10E3/uL | LYMPHOCYTE [1]: 92.5% | MEAN CORPUSCULAR HEMOGLOBIN [1]: 24.47 pg | MEAN CORPUSCULAR HEMOGLOBIN CONCENTRATION [1]: 38.98 G/DL | MEAN CORPUSCULAR VOLUME [1]: 62.78 fL | MONOCYTE [1]: 1% | NEUTROPHIL [1]: 6.17% | NUCLEATED RED BLOOD CELLS [1]: 0.17 /100WBC | PLATELET COUNT [1]: 1202.17 x10E3/uL | ALANINE AMINOTRANSFERASE [1]: 50.67 u/L | ALBUMIN [1]: 4.13 G/DL | ALKALINE PHOSPHATASE [1]: 356.33 u/L | ASPARTATE AMINOTRANSFERASE [1]: 78.17 u/L | BLOOD UREA NITROGEN [1]: 14.17 mg/dL | CARBON DIOXIDE [1]: 31.33 mmol/L | CHLORIDE [1]: 98.5 MEQ/L | CHOLESTEROL [1]: 76.5 mg/dL | CREATINE PHOSPHOKINASE [1]: 248.33 u/L | CREATININE [1]: 0.2 mg/dL | GLUCOSE [1]: 144 mg/dL | LACTATE DEHYDROGENASE [1]: 107 u/L | LIPASE [1]: 9.83 u/L | PHOSPHORUS [1]: 12.8 mg/dL | POTASSIUM [1]: 6.75 MEQ/L | SODIUM [1]: 142 MEQ/L | TOTAL BILIRUBIN [1]: 0.18 mg/dL | TOTAL PROTEIN [1]: 5.98 G/DL | URIC ACID [1]: 1.42 mg/dL | ABSOLUTE BASOPHIL [2]: 0 CELLS/uL | ABSOLUTE EOSINOPHIL [2]: 0 CELLS/uL | ABSOLUTE LYMPHOCYTE [2]: 8681.17 CELLS/uL | ABSOLUTE MONOCYTE [2]: 79.83 CELLS/uL | ABSOLUTE SEGMENTED NEUTROPHIL [2]: 689 CELLS/uL | BASOPHIL [2]: 0% | EOSINOPHIL [2]: 0% | ERYTHROCYTE COUNT [2]: 5.49 x10E6/uL | HEMATOCRIT [2]: 33.55% | HEMOGLOBIN [2]: 13.1 G/DL | LEUKOCYTE COUNT [2]: 9.45 x10E3/uL | LYMPHOCYTE [2]: 92.33% | MEAN CORPUSCULAR HEMOGLOBIN [2]: 23.92 pg | MEAN CORPUSCULAR HEMOGLOBIN CONCENTRATION [2]: 39.07 G/DL | MEAN CORPUSCULAR VOLUME [2]: 61.22 fL | MONOCYTE [2]: 0.67% | NEUTROPHIL [2]: 7% | NUCLEATED RED BLOOD CELLS [2]: 0.17 /100WBC | PLATELET COUNT [2]: 1001.17 x10E3/uL | ALANINE AMINOTRANSFERASE [2]: 49.33 u/L | ALBUMIN [2]: 4.07 G/DL | ALKALINE PHOSPHATASE [2]: 300.33 u/L | ASPARTATE AMINOTRANSFERASE [2]: 83.5 u/L | BLOOD UREA NITROGEN [2]: 16 mg/dL | CARBON DIOXIDE [2]: 29.67 mmol/L | CHLORIDE [2]: 100.5 MEQ/L | CHOLESTEROL [2]: 74.33 mg/dL | CREATINE PHOSPHOKINASE [2]: 489.67 u/L | CREATININE [2]: 0.35 mg/dL | GLUCOSE [2]: 151 mg/dL | LACTATE DEHYDROGENASE [2]: 133.67 u/L | LIPASE [2]: 11.17 u/L | PHOSPHORUS [2]: 10.88 mg/dL | POTASSIUM [2]: 5.5 MEQ/L | SODIUM [2]: 145.7 MEQ/L | TOTAL BILIRUBIN [2]: 0.2 mg/dL | TOTAL PROTEIN [2]: 6.05 G/DL | URIC ACID [2]: 0.68 mg/dL | ABSOLUTE BASOPHIL [3]: 0 CELLS/uL | ABSOLUTE EOSINOPHIL [3]: 0 CELLS/uL | ABSOLUTE LYMPHOCYTE [3]: 7020.67 CELLS/uL | ABSOLUTE MONOCYTE [3]: 111 CELLS/uL | ABSOLUTE SEGMENTED NEUTROPHIL [3]: 835 CELLS/uL | BASOPHIL [3]: 0% | EOSINOPHIL [3]: 0% | ERYTHROCYTE COUNT [3]: 5.23 x10E6/uL | HEMATOCRIT [3]: 33.07% | HEMOGLOBIN [3]: 13.03 G/DL | LEUKOCYTE COUNT [3]: 7.97 x10E3/uL | LYMPHOCYTE [3]: 88% | MEAN CORPUSCULAR HEMOGLOBIN [3]: 24.97 pg | MEAN CORPUSCULAR HEMOGLOBIN CONCENTRATION [3]: 39.4 G/DL | MEAN CORPUSCULAR VOLUME [3]: 63.33 fL | MONOCYTE [3]: 1.33% | NEUTROPHIL [3]: 10.67% | NUCLEATED RED BLOOD CELLS [3]: 0 /100WBC | PLATELET COUNT [3]: 1079.67 x10E3/uL | ALANINE AMINOTRANSFERASE [3]: 49 u/L | ALBUMIN [3]: 4.07 G/DL | ALKALINE PHOSPHATASE [3]: 334 u/L | ASPARTATE AMINOTRANSFERASE [3]: 80.33 u/L | BLOOD UREA NITROGEN [3]: 14.33 mg/dL | CARBON DIOXIDE [3]: 29.33 mmol/L | CHLORIDE [3]: 100.67 MEQ/L | CHOLESTEROL [3]: 77.33 mg/dL | CREATINE PHOSPHOKINASE [3]: 294 u/L | CREATININE [3]: 0.2 mg/dL | GLUCOSE [3]: 160 mg/dL | LACTATE DEHYDROGENASE [3]: 118.67 u/L | LIPASE [3]: 10 u/L | PHOSPHORUS [3]: 11.4 mg/dL | POTASSIUM [3]: 5.59 MEQ/L | SODIUM [3]: 144.23 MEQ/L | TOTAL BILIRUBIN [3]: 0.17 mg/dL | TOTAL PROTEIN [3]: 5.83 G/DL | URIC ACID [3]: 0.93 mg/dL | ABSOLUTE BASOPHIL [4]: 0 CELLS/uL | ABSOLUTE EOSINOPHIL [4]: 0 CELLS/uL | ABSOLUTE LYMPHOCYTE [4]: 9833.67 CELLS/uL | ABSOLUTE MONOCYTE [4]: 110.67 CELLS/uL | ABSOLUTE SEGMENTED NEUTROPHIL [4]: 822.33 CELLS/uL | BASOPHIL [4]: 0% | EOSINOPHIL [4]: 0% | ERYTHROCYTE COUNT [4]: 5.64 x10E6/uL | HEMATOCRIT [4]: 35.27% | HEMOGLOBIN [4]: 13.9 G/DL | LEUKOCYTE COUNT [4]: 10.77 x10E3/uL | LYMPHOCYTE [4]: 91.33% | MEAN CORPUSCULAR HEMOGLOBIN [4]: 24.73 pg | MEAN CORPUSCULAR HEMOGLOBIN CONCENTRATION [4]: 39.43 G/DL | MEAN CORPUSCULAR VOLUME [4]: 62.77 fL | MONOCYTE [4]: 1% | NEUTROPHIL [4]: 7.67% | NUCLEATED RED BLOOD CELLS [4]: 0.33 /100WBC | PLATELET COUNT [4]: 1147.67 x10E3/uL | ALANINE AMINOTRANSFERASE [4]: 54 u/L | ALBUMIN [4]: 4.03 G/DL | ALKALINE PHOSPHATASE [4]: 380.67 u/L | ASPARTATE AMINOTRANSFERASE [4]: 82.33 u/L | BLOOD UREA NITROGEN [4]: 13 mg/dL | CARBON DIOXIDE [4]: 29.67 mmol/L | CHLORIDE [4]: 100.67 MEQ/L | CHOLESTEROL [4]: 75.67 mg/dL | CREATINE PHOSPHOKINASE [4]: 286 u/L | CREATININE [4]: 0.31 mg/dL | GLUCOSE [4]: 147.33 mg/dL | LACTATE DEHYDROGENASE [4]: 106 u/L | LIPASE [4]: 9.33 u/L | PHOSPHORUS [4]: 11.2 mg/dL | POTASSIUM [4]: 5.79 MEQ/L | SODIUM [4]: 145.73 MEQ/L | TOTAL BILIRUBIN [4]: 0.17 mg/dL | TOTAL PROTEIN [4]: 5.77 G/DL | URIC ACID [4]: 0.73 mg/dL
